1 compound from ChEMBL document CHEMBL1159231, “Cyathocaline, an Azafluorenone Alkaloid from Cyathocalyx zeylanica” (J Nat Prod, 1995) can be followed below.

Calls of active or inactive are those of the source. The calls are words filed in the database; no cut-off is given here.

In test [1] the test system is Saccharomyces cerevisiae. The test can be described thus: DNA damaging activity against wild type DNA repair-proficient yeast RS 188N (RAD+) assessed as drug level required to produce 12 mm zone of inhibition. Format: functional.
In test [2] the test system is Saccharomyces cerevisiae. As to the kind of experiment: DNA damaging activity against DNA repair-deficient yeast RS 321N mutant assessed as drug level required to produce 12 mm zone of inhibition. Format: functional.
The subject of test [3] is Saccharomyces cerevisiae. As to the kind of experiment: DNA damaging activity against DNA repair rad 52Y gene-deficient yeast RS 322YK mutant assessed as drug level required to produce 12 mm zone of inhibition. The test is classed as functional.
For test [4], the system named is Saccharomyces cerevisiae. As to the kind of experiment: DNA damaging activity against DNA repair rad6 gene-deficient yeast RS 167N mutant. The test is classed as functional, organism-based.
A further test relates to A549. The test can be described thus: Cytotoxicity against human A549 cells. The test is classed as functional, cell-based.

As for `COc1c(O)cc2c(c1O)-c1nccc(C)c1C2=O` [CYATHOCALINE], the IC12 was greater than 400 µg/mL in the test on Saccharomyces cerevisiae [1], 87 µg/mL in the test with Saccharomyces cerevisiae [2] and 90 µg/mL with Saccharomyces cerevisiae [3]. Also, the result in the test on Saccharomyces cerevisiae [4] was inactive. This compound had an IC50 with A549 of 8.5 µM.
